Laboratory results as given in the supplement of paper PMC8149375.

Tests used:
Conditions in all cases: treatment: drug + dasatinib (fixed dose, not stated); 5 days
769-P [1] = assay: GI50 of drug in presence of dasatinib; higher = less potent
Experimental: (§1)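 Primary HTS combination arm: 8 RCC cell lines treated with 8 doses (up to 10 uM) of each library drug plus a fixed dose of dasatinib (dose not stated) for 5 days; viability read by CellTiter-Glo and normalised to DMSO. GI50 was fitted with XLfit, AUC is the area under the dose-response curve, and minimum viability is the lowest fraction of DMSO viability across doses.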

A498 [2] = assay: as above
Experimental: as §1

SN12C [3] = assay: as above
Experimental: as §1

TK-10 [4] = assay: as above
Experimental: as §1

ACHN [5] = assay: as above
Experimental: as §1

CAKI-1 [6] = assay: as above
Experimental: as §1

UO-31 [7] = assay: as above
Experimental: as §1

786-O [8] = assay: as above
Experimental: as §1

769-P [9] = assay: AUC of dose-response viability curve, drug + dasatinib, normalised to DMSO (arbitrary (AUC of normalised viability)); higher = less growth inhibition
Experimental: as §1

A498 [10] = assay: as above
Experimental: as §1

SN12C [11] = assay: as above
Experimental: as §1

TK-10 [12] = assay: as above
Experimental: as §1

ACHN [13] = assay: as above
Experimental: as §1

CAKI-1 [14] = assay: as above
Experimental: as §1

UO-31 [15] = assay: as above
Experimental: as §1

786-O [16] = assay: as above
Experimental: as §1

769-P [17] = assay: minimum viability across doses, drug + dasatinib, relative to DMSO (fraction); higher = less growth inhibition
Experimental: as §1

A498 [18] = assay: as above
Experimental: as §1

SN12C [19] = assay: as above
Experimental: as §1

TK-10 [20] = assay: as above
Experimental: as §1

ACHN [21] = assay: as above
Experimental: as §1

CAKI-1 [22] = assay: as above
Experimental: as §1

UO-31 [23] = assay: as above
Experimental: as §1

786-O [24] = assay: as above
Experimental: as §1

Row | SMILES | GI50 of drug (769-P [1]) [nM] | GI50 of drug (A498 [2]) [nM] | GI50 of drug (SN12C [3]) [nM] | GI50 of drug (TK-10 [4]) [nM] | GI50 of drug (ACHN [5]) [nM] | GI50 of drug (CAKI-1 [6]) [nM] | GI50 of drug (UO-31 [7]) [nM] | GI50 of drug (786-O [8]) [nM] | AUC of dose-response viability curve (769-P [9]) | AUC of dose-response viability curve (A498 [10]) | AUC of dose-response viability curve (SN12C [11]) | AUC of dose-response viability curve (TK-10 [12]) | AUC of dose-response viability curve (ACHN [13]) | AUC of dose-response viability curve (CAKI-1 [14]) | AUC of dose-response viability curve (UO-31 [15]) | AUC of dose-response viability curve (786-O [16]) | minimum viability across doses (769-P [17]) | minimum viability across doses (A498 [18]) | minimum viability across doses (SN12C [19]) | minimum viability across doses (TK-10 [20]) | minimum viability across doses (ACHN [21]) | minimum viability across doses (CAKI-1 [22]) | minimum viability across doses (UO-31 [23]) | minimum viability across doses (786-O [24])
1 | O=C(Cc1ccc(-c2ccc(OCCN3CCOCC3)cc2)cn1)NCc1ccccc1 [KX2-391] + Cc1nc(Nc2ncc(C(=O)Nc3c(C)cccc3Cl)s2)cc(N2CCN(CCO)CC2)n1 [dasatinib] | 35.9 | 77.6 | 46.7 | 104 | 43.3 | 29.5 | 92.6 | 14.9 | 1.09 | 1.78 | 1.34 | 1.69 | 1.23 | 1.12 | 1.77 | 0.764 | 0.0616 | 0.166 | 0.114 | 0.243 | 0.1 | 0.111 | 0.00946 | 0.00445
2 | O=C(Nc1ccc(OC(F)(F)F)cc1)c1sccc1NCc1ccnc2ccccc12 [OSI-930] + Cc1nc(Nc2ncc(C(=O)Nc3c(C)cccc3Cl)s2)cc(N2CCN(CCO)CC2)n1 [dasatinib] | 3090 | > 10000 | 6210 | 6520 | 2350 | 3170 | 4590 | 4480 | 2.23 | 3.69 | 2.57 | 2.71 | 2.07 | 2.23 | 3.25 | 2.41 | 0.24 | 0.685 | 0.174 | 0.395 | 0.129 | 0.136 | 0.0216 | 0.32
3 | O=C(NOCC(O)CO)c1cc(Br)c(F)c(F)c1Nc1ccc(I)cc1F (stereo not drawn) + Cc1nc(Nc2ncc(C(=O)Nc3c(C)cccc3Cl)s2)cc(N2CCN(CCO)CC2)n1 [dasatinib] | 800 | 1560 | 1220 | 2540 | 26.5 | 680 | 1690 | 149 | 2.06 | 2.39 | 2.1 | 2.23 | 1.45 | 1.91 | 2.59 | 1.75 | 0.278 | 0.344 | 0.357 | 0.404 | 0.279 | 0.133 | 0.164 | 0.327
4 | NC1(Cc2ccc(Cl)cc2)CCN(c2ncnc3[nH]ccc23)CC1 + Cc1nc(Nc2ncc(C(=O)Nc3c(C)cccc3Cl)s2)cc(N2CCN(CCO)CC2)n1 [dasatinib] | 5140 | 8070 | 4470 | 2130 | 1480 | 2550 | 3230 | 353 | 2.5 | 3.16 | 2.36 | 2.38 | 2.04 | 2.19 | 3.84 | 1.97 | 0.323 | 0.401 | 0.356 | 0.207 | 0.165 | 0.202 | 0.0115 | 0.00351
5 | COC[C@H]1OC(=O)c2coc3c2[C@@]1(C)C1=C(C3=O)[C@@H]2CCC(=O)[C@@]2(C)C[C@@H]1OC(C)=O [Wortmannin] + Cc1nc(Nc2ncc(C(=O)Nc3c(C)cccc3Cl)s2)cc(N2CCN(CCO)CC2)n1 [dasatinib] | > 10000 | 84.8 | 53.4 | > 10000 | 41.4 | 15.8 | > 10000 | 32.5 | 2.25 | 2.76 | 2.16 | 2.46 | 1.87 | 1.38 | 2.3 | 1.62 | 0.487 | 0.153 | 0.342 | 0.633 | 0.425 | 0.123 | 0.688 | 0.00996
6 | O=C1NC(=O)/C(=C/c2ccc3nccc(-c4ccncc4)c3c2)S1 + Cc1nc(Nc2ncc(C(=O)Nc3c(C)cccc3Cl)s2)cc(N2CCN(CCO)CC2)n1 [dasatinib] | 294 | 383 | 304 | 930 | 101 | 75 | 500 | 136 | 1.8 | 2.01 | 1.76 | 2.17 | 1.45 | 1.29 | 2.17 | 1.53 | 0.261 | 0.138 | 0.243 | 0.318 | 0.108 | 0.0502 | 0.0612 | 0.00524
7 | Nc1cccc2c1C(=O)N(C1CCC(=O)NC1=O)C2=O (stereo not drawn) [Pomalidomide] + Cc1nc(Nc2ncc(C(=O)Nc3c(C)cccc3Cl)s2)cc(N2CCN(CCO)CC2)n1 [dasatinib] | > 10000 | > 10000 | > 10000 | > 10000 | > 10000 | > 10000 | > 10000 | > 10000 | 2.65 | 3.27 | 2.58 | 2.5 | 2.15 | 2.38 | 3.3 | 2.67 | 0.65 | 0.857 | 0.711 | 0.639 | 0.542 | 0.642 | 0.868 | 0.617
